Experimental data: patent US9101567B2, “Suppression of cancer growth and metastasis using nordihydroguaiaretic acid derivatives with 7-hydroxystaurosporine” (The Johns Hopkins University, priority 2010, dated 2015)
Where “and” joins values, the source holds several entries; their conditions need not be identical. Identical values can stand only once.

Columns and labels:
[1] = test system: OC24 human ovarian cancer cells; assay: OC24 ovarian cancer-bearing nude mice: survival, ascites fluid, abdominal tumors; format: in vivo, nude mice (nu/nu); settings: for survival rate at 45 days after treatment: OC24 tumor-bearing nude mice, i.v. 1 mg M4N and/or 88.4 μg UCN-01 per shot; for Tumor Weight: abdominal tumors of individual OC24 tumor-bearing mice; for Tumor Weight / Weight of the Ascites Fluid: at the time of death; for Weight of the Ascites Fluid: individual OC24 tumor-bearing mice, data compiled at 45 days after tumor inoculation
Procedure: (§1) T-cell deficient male nude mice (nu/nu) were obtained from Charles River Laboratories (Wilmington, Mass.). […] For drug combinations (M4N/etoposide, M4N/rapamycin, and M4N/UCN-01), etoposide, rapamycin, or UCN-01 powder was further added to M4N in CPE 25/30 to make a final concentration of M4N (10 mg/ml) respectively with etoposide (4 mg/ml), rapamycin (3.75 mg/ml), or UCN-01 ([…]) in CPE 25/30 formulation. These drugs were intravenously injected into the tail vein of mice at the daily dose of 0.1 ml per mouse. Therefore dosages of each injection were 1 mg/shot (for M4N), 0.4 mg/shot (for etoposide), 0.375 mg/shot (for rapamycin), and 88.4 μg/shot (for UCN-01). The drug injections were performed once every day; beginning at day 3 until day 31 after tumor inoculation for the combination treatment with either etoposide or rapamycin and until day 25 after tumor inoculation for the combination treatment with UCN-01. After this the drugs were injected once a week for etoposide/rapamycin combination treatment and once every three days until day 35 for UCN-01 combination treatment. Protocols used in this study were approved by the Institutional Animal Care and Use Committee at the Johns Hopkins University, Department of Biology.
(§2) OC24 cells growing subconfluently were collected into the tissue culture medium without fetal bovine serum and antibiotics. The cell concentration was adjusted by the same medium. The cell solution containing 5×10^4 cells was injected into the peritoneal cavity of each nude mouse at the day 0. The drug treatment started from day 3. For the estimation of the effect of the drug treatment, the volume of ascites fluids and of abdominal tumors was measured.
Next we examined if this combination treatment could improve the anticancer efficacy of M4N in animal experiments. In this experiment we used OC24 ovarian cancer-bearing nude mice as a model system. OC24 cells are very aggressive cancers and have the ability to kill essentially all the mice when only ten thousand cancer cells are inoculated intraperitoneally into a mouse. […] All the mice without any treatments died in less than 26 days after the tumor inoculation. Meanwhile certain percentages of the mice survived in the all treatment groups (M4N alone, UCN-01 alone, or M4N/UCN-01 combination) beyond 45 days after treatment (the time of preparation of the current manuscript). The survival rate at 45 days after treatment was 33%, 20%, and 42% for M4N alone, UCN-01 alone, or M4N/UCN-01 combination group respectively.
To further evaluate the anticancer efficacy of M4N/UCN-01 combination treatment, we next measured the volume of the ascites fluid and that of abdominal tumors. The ascites fluid was collected from the peritoneal cavity at the time of death of tumor-bearing mice. Abdominal tumors are usually located in the vicinity of the area where the tumors were inoculated by the needle. […] The data was compiled at 45 days after tumor inoculation. Therefore there were still several mice who still survived from tumor burden.

LNCaP tumors = assay: Nude mice orthotopically implanted with LNCaP tumors: life-span and lung metastasis; format: in vivo, nude (nu/nu) mice; settings: LNCaP tumor-bearing nude mice; lung sections, hematoxylin and eosin
Procedure: T-cell deficient male nude mice (nu/nu) were obtained from Charles River Laboratories (Wilmington, Mass.). […] For drug combinations (M4N/etoposide, M4N/rapamycin, and M4N/UCN-01), etoposide, rapamycin, or UCN-01 powder was further added to M4N in CPE 25/30 to make a final concentration of M4N (10 mg/ml) respectively with etoposide (4 mg/ml), rapamycin (3.75 mg/ml), or UCN-01 (884 g/ml) in CPE 25/30 formulation. These drugs were intravenously injected into the tail vein of mice at the daily dose of 0.1 ml per mouse. Therefore dosages of each injection were 1 mg/shot (for M4N), 0.4 mg/shot (for etoposide), 0.375 mg/shot (for rapamycin), and 88.4 μg/shot (for UCN-01). The drug injections were performed once every day; beginning at day 3 until day 31 after tumor inoculation for the combination treatment with either etoposide or rapamycin and until day 25 after tumor inoculation for the combination treatment with UCN-01. After this the drugs were injected once a week for etoposide/rapamycin combination treatment and once every three days until day 35 for UCN-01 combination treatment.
LNCaP cells growing subconfluently were collected into the tissue culture medium without fetal bovine serum and antibiotics. The cell concentration was adjusted by the same medium. […]

caspase-3 and 9 = assay: Western blotting of cleaved caspase-3 and 9 in LNCaP cells; format: cell-based, human; settings: 17 hrs, M4N 80 μM, etoposide 10 μM, rapamycin 10 μM, UCN-01 2 μM
Procedure: (§3) The sample volumes were adjusted by the total protein amount. Protein assay was performed by Bio-Rad Protein Assay (Bio-Rad Laboratories, Inc. Hercules, Calif.). The samples were resolved by the standard SDS-polyacrylamide gel electrophoresis and transferred to nitrocellulose membrane (Amersham Biosciences, Bjorkgatan, Sweden). The membranes were blocked with skim milk, and incubated with primary antibodies at 4° C. overnight and then with secondary antibody conjugated with horse radish peroxidase at room temperature for 2 hrs. The signals were detected by western blot chemiluminescence reagent plus (New England Nuclear Life Science Products, Boston, Mass.).
(§4) The efficacy of the combination treatment of M4N with three anticancer drugs, etoposide, rapamycin, and UCN-01 to induce cell death was examined for LNCaP human prostate cancer cells with TUNEL assay. We chose these anticancer drugs trying to diversify the mechanisms in which the anticancer drugs work (43-45). […] Additionally the effect of caspase-3 and 7 inhibitor, zDEVD-fmk on the cell death induced by the combination treatment was examined (FIG. 1E).

[2] = Body weight change in OC24 tumor-bearing mice; format: in vivo, nude mice (nu/nu); settings: individual mice
Procedure: as §1, §2
Once the ascites fluid starts to accumulate in the peritoneal cavity, it sometimes constitutes a significant portion of the body weight.
The increase of the body weight of deceased mice at the time of the death over the initial weight was 37.8% (SD=18.9%, N=19) while the increase of the body weight of alive mice at days after tumor inoculation over the initial weight was 9.5% (SD=7.5%, N=6). The difference of two groups is statistically significant by t-test (0.2%). […] Therefore the body weight change can be used as an indicator to estimate the volume of ascites and thus overall condition of the mice. […] The body weight increased slightly after day 26. However it hasn't reached the peak weight achieved at day 22 (30.5 g). […] The pictures show the apparent decrease of the volume of abdominal area from day 22 to day 29 through day 26. This almost certainly indicated the reduction of ascites fluid. […] The observations depicted in FIGS. 8 B and 8C indicate that the combination treatment of M4N with UCN-01 can suppress tumor burden even after the tumor size has already reached to a certain extent. Discussion

caspase-7 [3] = assay: Western blotting of caspase-7 cleavage in LNCaP cells; format: cell-based, human; settings: 17 hrs, M4N 80 μM, etoposide 10 μM, rapamycin 10 μM, UCN-01 2 μM
Procedure: as §3, §4

caspase-7 [4] = assay: Enzymatic assay for caspase-7 in extracts of treated LNCaP cells; format: cell-based, human; settings: extracts of LNCaP cells treated for 13 hrs
Procedure: The enzymatic assay specific for caspase-7 was performed using a CaspSELECT caspase-7 immunoassay kit (BioVision, Mountain View, Calif.). This assay is based on the […] assay with DEVD-afc. Since DEVD-afc can be a substrate for either caspase-3 or 7, only caspase-7 is selected from cell extracts by anti-caspase-7 antibody which is coated on microtiter plates. Briefly the microtiter plates were coated with anti-caspase-7 antibody overnight at 4 C and blocked with a blocking solution for 30 minutes at room temperature. The cell extracts were applied to the microtiter plates. After washing the microtiter plates, the substrate […] was added to the plates and incubated for about three hours. The fluorescence was measured by a microtiter plate fluorescence reader Infinite 200 (Tecan, Switzerland).
as §4

Structure (SMILES)	survival rate at 45 days after treatment [1] [%]	Tumor Weight [1]	Weight of the Ascites Fluid [1]	expression of cleaved caspase-3 and 9 (caspase-3 and 9)	Body weight ([2]; Day No. 0 (10-Dec))	Body weight ([2]; Day No. 2 (12-Dec))	Body weight ([2]; Day No. 3 (13-Dec))	Body weight ([2]; Day No. 8 (18-Dec))	Body weight ([2]; Day No. 12 (22-Dec))	Body weight ([2]; Day No. 22 (1-Jan))	Body weight ([2]; Day No. 26 (5-Jan))	Body weight ([2]; Day No. 29 (8-Jan))	Body weight ([2]; Day No. 32 (11-Jan))	Body weight ([2]; Day No. 33 (12-Jan))	Body weight ([2]; Day No. 34 (13-Jan))	Body weight ([2]; Day No. 35 (14-Jan))	Body weight ([2]; Day No. 36 (15-Jan))	Body weight ([2]; Day No. 37 (16-Jan))	Body weight ([2]; Day No. 38 (17-Jan))	Body weight ([2]; Day No. 39 (18-Jan))	other results
COc1ccc(C[C@@H](C)[C@@H](C)Cc2ccc(OC)c(OC)c2)cc1OC [M4N, Tetra-O-methyl nordihyroguaiaretic acid]	33	101.3 mg and <100 mg and 360.5 mg and 69 mg	4.4 g and Living (2×) and 7.8 g and 5.8 g and 16.1 g	didn't induce the cleavage	24.1 grams and 22.9 grams and 23.5 grams and 22.3 grams and 20 grams and 21.4 grams	22.3 grams and 20.8 grams and 22.9 grams and 21.5 grams and 19.1 grams and 20.9 grams	22.8 grams and 21.2 grams and 23.4 grams and 20.9 grams and 20.2 grams and 20.5 grams	30.1 grams and 25.8 (31st Dec) grams	23.9 grams and 21.9 grams and 27.7 grams (2×) and 29.8 (Euthanized on 1st Jan) grams	23.2 grams and 21.5 grams and 28 grams and 38.8 grams	24.1 grams and 22.5 grams and 28.1 grams	26.2 grams and 22.7 grams	25.5 grams and 22.5 grams	25.3 grams and 23.1 grams	25.3 grams and 22.9 grams	24.8 grams and 22 grams	25.7 grams and 22.4 grams	25.8 grams and 22.6 grams	25.9 grams and 22.9 grams	26.3 grams and 22.7 grams	mice with obvious lung metastasis (histology) (LNCaP tumors): 2 out of 4; Body weight ([2]; Day No. 40 (19-Jan)): 26.4 grams and 22.9 grams; Body weight ([2]; Day No. 41 (20-Jan)): 26.4 grams and 23.1 grams; Body weight ([2]; Day No. 42 (21-Jan)): 25.3 grams and 23.2 grams; Body weight ([2]; column head Day No. 25 (4-Jan)): 37.5 grams; Body weight ([2]; column head Day No. 28 (7-Jan)): 27.9 grams; caspase-7 cleavage products (20 and 34 kDa) (caspase-7 [3]): small amount; caspase-7 activation (enzymatic activity) (caspase-7 [4]): only a small amount
CN[C@@H]1C[C@H]2O[C@@](C)([C@@H]1OC)n1c3ccccc3c3c4c(c5c6ccccc6n2c5c31)C(=O)N[C@H]4O [UCN-01, 7-hydroxystaurosporine]	20	No Tumor (2×) and 360.5 mg and 87 mg	7.4 g and 15 g and Living and 14.3 g and 2.9 g	great expression	22.8 grams and 22.1 grams and 23.4 grams and 21.6 grams and 19.6 grams and 20.6 grams	22.6 grams (2×) and 18.3 grams and 20.8 grams	23.4 grams and 21.8 grams and 35.7 grams and 30.5 grams and 22.9 grams and 21.9 Died due to injection & not the tumor (28th Dec) grams	39.5 grams and 35.9 grams and 26.2 grams	24.4 grams and 30.7 grams and 38.4 (6th Jan) grams and 27.3 grams	24.8 grams and 29.5 grams	25.5 grams	27.9 grams	27.6 grams	27.4 grams	27.5 grams	26.5 grams	27.2 grams	27.3 grams	27.1 grams	27.4 grams	Body weight ([2]; Day No. 40 (19-Jan)): 27.4 grams; Body weight ([2]; Day No. 41 (20-Jan)): 27.8 grams; Body weight ([2]; Day No. 42 (21-Jan)): 26.7 grams; Body weight ([2]; column head Day No. 18 (28-Dec)): 22.5 grams; caspase-7 cleavage products (20 and 34 kDa) (caspase-7 [3]): great amount; caspase-7 activation (enzymatic activity) (caspase-7 [4]): to some extent
